Data taken from ChEMBL document CHEMBL4014279, “Synthesis of novel pyrazolo[3,4-b]quinolinyl acetamide analogs, their evaluation for antimicrobial and anticancer activities, validation by molecular modeling and CoMFA analysis” (Eur J Med Chem, 2017).
≈ marks a conversion by molar mass, not a printed value.

Experiments:
HeLa = assay: Cytotoxicity against human HeLa cells after 24 hrs by MTT assay; assay type: functional, cell-based
COLO 205 = assay: Cytotoxicity against human COLO205 cells after 24 hrs by MTT assay; assay type: functional, cell-based; conditions: COLO 205, 24 h
HepG2 = assay: Cytotoxicity against human HepG2 cells after 24 hrs by MTT assay; assay type: functional, cell-based; conditions: HepG2, 24 h
A549 = assay: Cytotoxicity against human A549 cells after 24 hrs by MTT assay; assay type: functional, cell-based; conditions: A549, 24 h
Escherichia coli = assay: Antibacterial activity against Escherichia coli MTCC 739 after 24 hrs by well diffusion method; assay type: functional; conditions: MTCC 739, 24 h
Raoultella planticola = assay: Antibacterial activity against Klebsiella planticola MTCC 530 after 24 hrs by well diffusion method; assay type: functional; conditions: MTCC 530, 24 h
Micrococcus luteus = assay: Antibacterial activity against Micrococcus luteus MTCC 2470 after 24 hrs by well diffusion method; assay type: functional; conditions: MTCC 2470, 24 h
Pseudomonas aeruginosa = assay: Antibacterial activity against Pseudomonas aeruginosa MTCC 2453 after 24 hrs by well diffusion method; assay type: functional; conditions: MTCC 2453, 24 h
Staphylococcus aureus [1] = assay: Antibacterial activity against Staphylococcus aureus MTCC 96 after 24 hrs by well diffusion method; assay type: functional; conditions: MTCC 96, 24 h
Staphylococcus aureus [2] = assay: Antibacterial activity against Staphylococcus aureus MLS16 MTCC 2940 after 24 hrs by well diffusion method; assay type: functional; conditions: MLS16 MTCC 2940, 24 h
Bacillus subtilis = assay: Antibacterial activity against Bacillus subtilis MTCC 121 after 24 hrs by well diffusion method; assay type: functional; conditions: MTCC 121, 24 h

| Structure (SMILES) | IC50 (HeLa) [µM] | IC50 (COLO 205) [µM] | IC50 (HepG2) [µM] | IC50 (A549) [µM] | MIC (Escherichia coli) [µg/mL] | MIC (Raoultella planticola) [µg/mL] | MIC (Micrococcus luteus) [µg/mL] | MIC (Pseudomonas aeruginosa) [µg/mL] | MIC (Staphylococcus aureus [1]) [µg/mL] | MIC (Staphylococcus aureus [2]) [µg/mL] | MIC (Bacillus subtilis) [µg/mL] |
| --- | --- | --- | --- | --- | --- | --- | --- | --- | --- | --- | --- |
| O=c1[nH]cc(F)c(=O)[nH]1 [FLUOROURACIL] | 1.4 | 1.9 | 1.4 | 1.2 | – | – | – | – | – | – | – |
| CNC(=O)Cn1nc(C)c2c(C)c3ccccc3nc21 | 18.1 | 16.3 | 17.9 | 20.2 | > 125 | > 125 | 15.6 (≈ 58.1 µM) | > 125 | > 125 | > 125 | 62.5 (≈ 233 µM) |
| COc1ccc(NC(=O)Cn2nc(C)c3c(C)c4ccccc4nc32)cc1 | 20.4 | 18.9 | 22.2 | 25.6 | 7.8 to 125 (≈ 21.6 to 347 µM) | 7.8 to 125 (≈ 21.6 to 347 µM) | 7.8 to 125 (≈ 21.6 to 347 µM) | 7.8 to 125 (≈ 21.6 to 347 µM) | 7.8 to 125 (≈ 21.6 to 347 µM) | 7.8 to 125 (≈ 21.6 to 347 µM) | 7.8 to 125 (≈ 21.6 to 347 µM) |
| Cc1nn(CC(=O)NCc2ccco2)c2nc3ccccc3c(C)c12 | 14.4 | 15.6 | 13.2 | 14.9 | 7.8 to 125 (≈ 23.3 to 374 µM) | 7.8 to 125 (≈ 23.3 to 374 µM) | 7.8 to 125 (≈ 23.3 to 374 µM) | 7.8 to 125 (≈ 23.3 to 374 µM) | 7.8 to 125 (≈ 23.3 to 374 µM) | 7.8 to 125 (≈ 23.3 to 374 µM) | 7.8 to 125 (≈ 23.3 to 374 µM) |
| Cc1nn(CC(=O)NC2CC2)c2nc3ccccc3c(C)c12 | 16.7 | 11.9 | 15.2 | 14.3 | 7.8 to 125 (≈ 26.5 to 425 µM) | 7.8 to 125 (≈ 26.5 to 425 µM) | 7.8 to 125 (≈ 26.5 to 425 µM) | 7.8 to 125 (≈ 26.5 to 425 µM) | 7.8 to 125 (≈ 26.5 to 425 µM) | 7.8 to 125 (≈ 26.5 to 425 µM) | 7.8 to 125 (≈ 26.5 to 425 µM) |
| O=C(Cn1nc(C(F)(F)F)c2c(-c3ccccc3)c3ccccc3nc21)Nc1ccc([N+](=O)[O-])cc1 | 15.1 | 14.3 | 12.2 | 10.8 | 7.8 to 125 (≈ 15.9 to 254 µM) | 7.8 to 125 (≈ 15.9 to 254 µM) | 7.8 to 125 (≈ 15.9 to 254 µM) | 7.8 to 125 (≈ 15.9 to 254 µM) | 7.8 to 125 (≈ 15.9 to 254 µM) | 7.8 to 125 (≈ 15.9 to 254 µM) | 7.8 to 125 (≈ 15.9 to 254 µM) |
| Cc1c2ccccc2nc2c1c(C(F)(F)F)nn2CC(=O)NCc1ccco1 | 32.8 | 29.8 | 48.2 | 33.9 | 7.8 to 125 (≈ 20.1 to 322 µM) | 7.8 to 125 (≈ 20.1 to 322 µM) | 7.8 to 125 (≈ 20.1 to 322 µM) | 7.8 to 125 (≈ 20.1 to 322 µM) | 7.8 to 125 (≈ 20.1 to 322 µM) | 7.8 to 125 (≈ 20.1 to 322 µM) | 7.8 to 125 (≈ 20.1 to 322 µM) |
| Cc1nn(CC(=O)NC2CCCCC2)c2nc3ccccc3c(C)c12 | 14.2 | 20.1 | 10.8 | 12.6 | 7.8 to 125 (≈ 23.2 to 372 µM) | 7.8 to 125 (≈ 23.2 to 372 µM) | 7.8 to 125 (≈ 23.2 to 372 µM) | 7.8 to 125 (≈ 23.2 to 372 µM) | 7.8 to 125 (≈ 23.2 to 372 µM) | 7.8 to 125 (≈ 23.2 to 372 µM) | 7.8 to 125 (≈ 23.2 to 372 µM) |
| CNC(=O)Cn1nc(C(F)(F)F)c2c(-c3ccccc3)c3ccccc3nc21 | 23.5 | 19.8 | 22.5 | 21.4 | 7.8 to 125 (≈ 20.3 to 325 µM) | 7.8 to 125 (≈ 20.3 to 325 µM) | 7.8 to 125 (≈ 20.3 to 325 µM) | 7.8 to 125 (≈ 20.3 to 325 µM) | 7.8 to 125 (≈ 20.3 to 325 µM) | 7.8 to 125 (≈ 20.3 to 325 µM) | 7.8 to 125 (≈ 20.3 to 325 µM) |
| Cc1c2ccccc2nc2c1c(C(F)(F)F)nn2CC(=O)NC1CC1 | 21 | 22.7 | 18.6 | 19.2 | 7.8 to 125 (≈ 22.4 to 359 µM) | 7.8 to 125 (≈ 22.4 to 359 µM) | 7.8 to 125 (≈ 22.4 to 359 µM) | 7.8 to 125 (≈ 22.4 to 359 µM) | 7.8 to 125 (≈ 22.4 to 359 µM) | 7.8 to 125 (≈ 22.4 to 359 µM) | 7.8 to 125 (≈ 22.4 to 359 µM) |
| Cc1c2ccccc2nc2c1c(C(F)(F)F)nn2CC(=O)NC1CCCCC1 | 23.4 | 24.5 | 29.6 | 28.2 | 7.8 to 125 (≈ 20 to 320 µM) | 7.8 to 125 (≈ 20 to 320 µM) | 7.8 to 125 (≈ 20 to 320 µM) | 7.8 to 125 (≈ 20 to 320 µM) | 7.8 to 125 (≈ 20 to 320 µM) | 7.8 to 125 (≈ 20 to 320 µM) | 7.8 to 125 (≈ 20 to 320 µM) |
| Cc1c2ccccc2nc2c1c(C(F)(F)F)nn2CC(=O)N1CCN(CCO)CC1 | 28.2 | 19.8 | 30.2 | 31.1 | 7.8 to 125 (≈ 18.5 to 297 µM) | 7.8 to 125 (≈ 18.5 to 297 µM) | 7.8 to 125 (≈ 18.5 to 297 µM) | 7.8 to 125 (≈ 18.5 to 297 µM) | 7.8 to 125 (≈ 18.5 to 297 µM) | 7.8 to 125 (≈ 18.5 to 297 µM) | 7.8 to 125 (≈ 18.5 to 297 µM) |
| CCNC(=O)Cn1nc(C(F)(F)F)c2c(C)c3ccccc3nc21 | 19.2 | 16.4 | 20.8 | 22.8 | 7.8 to 125 (≈ 23.2 to 372 µM) | 7.8 to 125 (≈ 23.2 to 372 µM) | 7.8 to 125 (≈ 23.2 to 372 µM) | 7.8 to 125 (≈ 23.2 to 372 µM) | 7.8 to 125 (≈ 23.2 to 372 µM) | 7.8 to 125 (≈ 23.2 to 372 µM) | 7.8 to 125 (≈ 23.2 to 372 µM) |
| CCCCCCNC(=O)Cn1nc(C(F)(F)F)c2c(C)c3ccccc3nc21 | 21.7 | 22.2 | 19.6 | 20.5 | 7.8 to 125 (≈ 19.9 to 319 µM) | 7.8 to 125 (≈ 19.9 to 319 µM) | 7.8 to 125 (≈ 19.9 to 319 µM) | 7.8 to 125 (≈ 19.9 to 319 µM) | 7.8 to 125 (≈ 19.9 to 319 µM) | 7.8 to 125 (≈ 19.9 to 319 µM) | 7.8 to 125 (≈ 19.9 to 319 µM) |
| CCCNC(=O)Cn1nc(C(F)(F)F)c2c(-c3ccccc3)c3ccccc3nc21 | 23.7 | 22.1 | 23.4 | 25.6 | 7.8 to 125 (≈ 18.9 to 303 µM) | 7.8 to 125 (≈ 18.9 to 303 µM) | 7.8 to 125 (≈ 18.9 to 303 µM) | 7.8 to 125 (≈ 18.9 to 303 µM) | 7.8 to 125 (≈ 18.9 to 303 µM) | 7.8 to 125 (≈ 18.9 to 303 µM) | 7.8 to 125 (≈ 18.9 to 303 µM) |
| CCNC(=O)Cn1nc(C(F)(F)F)c2c(-c3ccccc3)c3ccccc3nc21 | 26.5 | 18.9 | 22.2 | 29.5 | 7.8 to 125 (≈ 19.6 to 314 µM) | 7.8 to 125 (≈ 19.6 to 314 µM) | 7.8 to 125 (≈ 19.6 to 314 µM) | 7.8 to 125 (≈ 19.6 to 314 µM) | 7.8 to 125 (≈ 19.6 to 314 µM) | 7.8 to 125 (≈ 19.6 to 314 µM) | 7.8 to 125 (≈ 19.6 to 314 µM) |
| O=C(Cn1nc(C(F)(F)F)c2c(-c3ccccc3)c3ccccc3nc21)N1CCCCC1 | 29.2 | 19.3 | 30.2 | 25.6 | 7.8 to 125 (≈ 17.8 to 285 µM) | 7.8 to 125 (≈ 17.8 to 285 µM) | 7.8 to 125 (≈ 17.8 to 285 µM) | 7.8 to 125 (≈ 17.8 to 285 µM) | 7.8 to 125 (≈ 17.8 to 285 µM) | 7.8 to 125 (≈ 17.8 to 285 µM) | 7.8 to 125 (≈ 17.8 to 285 µM) |
| O=C(Cn1nc(C(F)(F)F)c2c(-c3ccccc3)c3ccccc3nc21)NCc1ccco1 | 27.2 | 28.1 | 26.8 | 22.4 | 7.8 to 125 (≈ 17.3 to 278 µM) | 7.8 to 125 (≈ 17.3 to 278 µM) | 7.8 to 125 (≈ 17.3 to 278 µM) | 7.8 to 125 (≈ 17.3 to 278 µM) | 7.8 to 125 (≈ 17.3 to 278 µM) | 7.8 to 125 (≈ 17.3 to 278 µM) | 7.8 to 125 (≈ 17.3 to 278 µM) |
| O=C(Cn1nc(C(F)(F)F)c2c(-c3ccccc3)c3ccccc3nc21)NC1CCCCC1 | 29.7 | 32.1 | 30.2 | 25.9 | 7.8 to 125 (≈ 17.2 to 276 µM) | 7.8 to 125 (≈ 17.2 to 276 µM) | 7.8 to 125 (≈ 17.2 to 276 µM) | 7.8 to 125 (≈ 17.2 to 276 µM) | 7.8 to 125 (≈ 17.2 to 276 µM) | 7.8 to 125 (≈ 17.2 to 276 µM) | 7.8 to 125 (≈ 17.2 to 276 µM) |
| CNC(=O)Cn1nc(C(F)(F)F)c2c(C)c3ccccc3nc21 | 17.2 | 12.8 | 18.9 | 11.3 | 7.8 to 125 (≈ 24.2 to 388 µM) | 7.8 to 125 (≈ 24.2 to 388 µM) | 7.8 to 125 (≈ 24.2 to 388 µM) | 7.8 to 125 (≈ 24.2 to 388 µM) | 7.8 to 125 (≈ 24.2 to 388 µM) | 7.8 to 125 (≈ 24.2 to 388 µM) | 7.8 to 125 (≈ 24.2 to 388 µM) |
